Experimental data as given in patent publication US12195468B2, “TLR7 agonist for treating colorectal cancer and pharmaceutical combination thereof” (CHIA TAI TIANQING PHARMACEUTICAL GROUP CO., LTD., priority 2018, dated 2025).

System: MC-38 colon cancer
Test: Anti-tumor experiment in MC-38 mouse model (subcutaneous xenograft tumor of MC-38 colon cancer in mice)
Type: in vivo
Conditions: for TV (mm^3) on day 0 Mean ± SD: day 0 (baseline at grouping); for TV (mm^3) on day 0 Mean ± SD / TV (mm^3) on day 12 Mean ± SD / TV (mm^3) on day 18 Mean ± SD: female C57BL/6 mice; for TV (mm^3) on day 0 Mean ± SD / TV (mm^3) on day 12 Mean ± SD / TV (mm^3) on day 18 Mean ± SD / TGI (%): i.g., anlotinib 1 mg/kg qd, TLR7 agonist 20 mg/kg tiw, 2 w; for TGI (%): tumor growth inhibition from tumor weight vs control group at end of experiment
Protocol: In Example 1, the TLR7 agonist is selected from
[drawing 58] and anlotinib is selected fromanlotinib dihydrochloride.
The MC-38 is a colon cancer cell of mouse from Jiangsu Cyto Biotechnology Co., Ltd.
Subcutaneously grafted tumor cells of MC-38 colon cancer (concentration: 2×10^6/mL×0.2 mL/mouse) were inoculated into female C57BL/6 mice at the right side armpit (the site to be inoculated was shaved before inoculating) in a sterile environment, and passaged using a block insertion method. The C57BL/6 mice were 16-18 g in weight, and the breeding environment was SPF level. The diameter of the C57BL/6 xenograft tumor was measured using a vernier caliper, and the mice were randomized into 4 groups when the tumors grew to 100-300 mm^3 (12 mice for control group and 6 mice each for other groups): • i. Control group (blank control); • ii. Monotherapy group: anlotinib, with normal saline as vehicle; • iii. Monotherapy group: TLR7 agonist, with ethanol+tween 80+normal saline (v:v:v=5:5:90) as vehicle; • iv.
The administration method of the combination therapy group is consistent with that of the monotherapy group.
Weights and diameter of the tumor were measured every three days, and the behavior of mice was observed daily. After the experiment was completed, the tumors were removed, weighed and photographed.
The tumor volume and the tumor growth inhibition were calculated using the following formulas: Tumor volume (TV)=(L×W^2)/2.
The TGI (%), as a value of efficacy, was substituted into the Jin zhengjun's formula q=Eab/(Ea+Eb−Ea×Eb), where Ea and Eb represent the efficacy of medicaments used alone, and Eab represents the efficacy of combined use.

CCCCOc1nc(N)c2[nH]cc(Cc3ccc(CN4CCCC4)cc3)c2n1 [TLR7 agonist]
TV (mm^3) on day 0 Mean ± SD: 143.93 ± 47.74 mm^3 | TV (mm^3) on day 12 Mean ± SD: 427.88 ± 161.31 mm^3 | TV (mm^3) on day 18 Mean ± SD: 747.63 ± 347.13 mm^3 | effect on growth of MC-38 tumor (in words) (summary of Table 2): can inhibit the growth of MC-38 tumor | TGI (%): 39%

COc1cc2c(Oc3ccc4[nH]c(C)cc4c3F)ccnc2cc1OCC1(N)CC1 [anlotinib, 1-[[[4-(4-fluoro-2-methyl-1H-indol-5-yl)oxy-6-methoxyquinolin-7-yl]oxy]methyl]cyclopropylamine, reference compound]
TV (mm^3) on day 0 Mean ± SD: 143.28 ± 45.46 mm^3 | TV (mm^3) on day 12 Mean ± SD: 427.30 ± 135.63 mm^3 | TV (mm^3) on day 18 Mean ± SD: 900.32 ± 346.06 mm^3 | TGI (%): 33%
